# Results reported in patent US20230331679A1, “NAPHTHALENE MONOIMIDE COMPOUNDS AND METHODS THEREOF” (JAWAHARLAL NEHRU CENTRE FOR ADVANCED SCIENTIFIC RESEARCH, priority 2020, published 2023).
# Columns and labels:
# APP/PS1 mice = experiment: Open field (OF) test; format: in vivo; details: AD TGR63 cohort
# Description: (§1) In OF test, all the experimental mice were individually allowed to explore a novel platform (45 X 45 cm) and their locomotion activity was monitored for 5 min (Sony HDRCX405 camera) and analyzed using the smart 3 software (Panlab; FIG. 16A). […] The anxiety behaviors of TGR63 treated mice were assessed by the time spent and the entries in the center zone (20 X 20 cm) of OF arena. […] Next, the effect of TGR63 on memory processing, viz., acquisition, consolidation and retrieval were evaluated through NOI test, which has been widely used as a tool to study the neurobiology of memory using the natural tendency of rodents to explore novel objects more than the familiar objects. All the experimental mice were familiarized with two identical objects (familiar objects) in a known habituated arena and allowed to explore a novel and familiar object after 24 and 48 h of familiarization (FIG. 16E). The exploration time with each object was measured using a stopwatch, and the discrimination index (DI) was determined using the formula, (time exploring the novel object - time exploring the familiar) / (time exploring novel + familiar) * 100. […] Similarly, the calculated DI after 48 h was lowest (-7) for AD vehicle cohort compared to both vehicle and TGR63 treated WT cohorts (+43 and +45, respectively) (FIG. 16G). […] The blocking of essential synaptic receptors (NMDA and AMPA) by Aβ aggregation species leading to synaptic dysfunction followed by impairment in hippocampal LTP formation. […] TGR63 treatment ameliorates the memory impairment in APP/PS 1 mice by reducing the toxic amyloid burden from the brain under progressive AD conditions.
# Aβ42 = biological target: T1, Aβ42 (Homo sapiens, UniProt P05067); experiment: ThT binding assay, inhibition of Aβ42 fibrillar assembly; format: biochemical
# T1 construct: commercially available β-amyloid peptide (1-42), human; purchased marck (so in the source) PP69-.025 mg
# T1 sequence (P05067 672-713 limits assumed): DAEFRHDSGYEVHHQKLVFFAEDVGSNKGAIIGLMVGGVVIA
# Description: Monomeric form of Aβ42 peptide was prepared by dissolving 0.25 mg of commercially available β-amyloid peptide (1-42), human (cat: PP69-.025 mg), marck peptide in 250 µL of hexafluoro-2-propanol (HFIP) solvent to obtain a Aβ42 solution. This solution was incubated at room temperature for 1 hour, further to which the HFIP solvent was removed by nitrogen gas flow to obtain the monomeric Aβ42 peptide. To prepare a fibrillar sample of Aβ42 peptide, 0.025 mg of Aβ42 peptide was dissolved in […] of PBS buffer (pH = 7.4; contains 2% of DMSO or 100 mM NaOH) to obtain a monomeric Aβ42 solution and the peptide concentration in this solution was calculated through UV-Visible absorbance studies (ε = 1450 cm^-1 M^-1). The Aβ42 monomeric solution was incubated for 5 days in PBS buffer (pH = 7.4) to allow for the full phase formation of Aβ42 fibrils. The presence of Aβ42 fibrils was further confirmed by ThT assay.
# Initially, the ability of the prepared NMI compounds, TGR63-68 to inhibit Aβ42 fibrillar assembly at 1:1 molar ratio with Aβ42 fibrils was evaluated using thioflavin (ThT) binding assay. 10 µM of Aβ42 fibrils in the absence (Ctrl) and the presence of 10 µM of inhibitors individually were incubated for 72 h. A normalized data for fluorescence intensity (NFI) of ThT at 482 nm (λex = 442 nm) was measured as represented in FIG. 1(a).
# The ability of NMI compounds (TGR63, TGR64 and TGR65) to prevent Aβ42 fibrillar assembly (inhibition) and to break down the preformed fibrils (dissolution) was evaluated using thioflavin (ThT) binding assay. Aβ42 fibrils at a concentration of 10 µM and its aggregates, were used to study the effect of NMI compounds (TGR63, TGR64 and TGR65) at varying concentrations on both inhibition and dissolution assays. For the inhibition assay, all the NMI compounds (TGR63, TGR64 and TGR65) were added independently to Aβ peptide (10 µM) at 0 h of the experiment, whereas for the aggregates dissolution assay they were added to Aβ42 fibrillar aggregates grown for 2 days. Upon incubating for a predetermined period, Aβ42 inhibitor samples were analyzed using ThT by measuring the fluorescence change at 485 nm as presented in FIG. 1(b) and FIG. 1(c), wherein the error bars represent the standard deviation (SD) of the fluorescence measurement. Fluorescence values were normalized to maximal fluorescence intensity at 485 nm compared to that of the control (Aβ42 with no inhibitor). Experiments were performed at various stoichiometric ratios (Aβ42/inhibitor) of 1:1, 1:2, and 1:5 with a fixed concentration of Aβ42 at 10 µM. Each experiment was repeated three times (n = 3). […] TGR 63 recorded 80% dissolution efficiency while TGR 64 and TGR 65 recorded 75% and 78% dissolution efficiency respectively, for the stoichiometric ratio of 1:5.
# APP/PS1 and WT mice = experiment: Novel object identification (NOI) test; format: in vivo
# Description: as §1
# [1] = Serum stability under in vitro conditions (absorbance); format: in vitro ADME; details: WT mouse blood serum, 0.5, 1, 2 and 6 h at 37° C.
structure (smiles),measurement,setting,value
"CN(C)c1ccc(C#Cc2ccc3c4c(cccc24)C(=O)N(CC[N+](C)(C)C)C3=O)cc1 [TGR63, 2-(6-((4-(dimethylamino)phenyl)ethynyl)-1,3-dioxo-1H-benzo[de]isoquinolin-2(3H)-yl)-N,N,N-trimethylethan-1-aminium]",total distance traveled (average),"APP/PS1 mice; 5 min, AD vehicle 2698.25 cm, WT vehicle 1533.88 cm",1515.33 cm
same,distance traveled in the center zone (average),APP/PS1 mice; AD vehicle 243.0 cm,98.14 cm
same,number of entries into the center zone,APP/PS1 mice; AD vehicle ~20,~ 9 entries
same,inhibitory effect on Aβ42 aggregation (ThT NFI at 482 nm),"Aβ42; 1:1 molar ratio, 10 µM Aβ42, 10 µM inhibitor, 72 h",~ 45%
same,decrease in the formation of Aβ aggregates,"Aβ42; Aβ42/inhibitor 1:1, Aβ42 10 µM, third day of incubation",~ 50%
same,Aβ aggregation decreased to,"Aβ42; Aβ42/inhibitor 1:2, Aβ42 10 µM, third day of incubation",75%
same,Aβ aggregation decreased to,"Aβ42; Aβ42/inhibitor 1:5, Aβ42 10 µM, third day of incubation",90%
same,discrimination index (DI),"APP/PS1 and WT mice; AD TGR63 cohort, after 24 h, AD vehicle -3",+43
same,discrimination index (DI),"APP/PS1 and WT mice; AD TGR63 cohort, after 48 h, AD vehicle -7",+38
same,reduction of DI at 48 h compared to 24 h,APP/PS1 and WT mice; TGR63 treated WT and AD cohorts,~ 5 units of DI
same,discrimination index (DI),"APP/PS1 and WT mice; WT TGR63 cohort, after 24 h, WT vehicle +49",+50
same,discrimination index (DI),"APP/PS1 and WT mice; WT TGR63 cohort, after 48 h, WT vehicle +43",+45
same,stability in blood serum (normalized absorbance at 450 nm),[1],confirmed the stability of TGR63 in blood serum
